Laboratory results as given in patent US4609736A, “Rhodanines useful as a therapeutic agent for diabetic complications” (Kaken Pharmaceutical Co., Ltd., priority 1983, dated 1986).
Where two headings read alike, the source gives them in different places.

Experiments:
[1] = system: thrombin-induced aggregation of washed rabbit platelets; experiment: Platelet aggregation inhibiting activity (thrombin-induced aggregation of washed rabbit platelets); assay type: cell-based, rabbit (albino, white local breed); details: for IC50: Oryctolagus cuniculus, Platelet, Table 2; for platelet aggregation inhibiting activity relative to Dipyridamole (Persantine): times that of Dipyridamole
Description: Blood samples were collected from the auricular blood vessel of albino rabbits (white local breed), and washed platelets were prepared therefrom by the method of Baenziger et al. [N. L. Baenziger and P. W. Majerus, Methods in Enzymology, 31, 149 to 155 (1974)]. The platelets were suspended in a 15 mM Tris-hydrochloric acid buffer in a final concentration of 6×10^8 cells/ml (Tris: tris(hydroxymethyl)aminomethane). Each test compound was added thereto and incubation was carried out at 37° C. for 2 minutes. Then, the platelets were stimulated by addition of thrombin (final concentration 0.2 unit/ml; made by Mochida Pharmaceutical Co.) and the aggregation inhibiting activity was estimated by observation of the aggregation reaction using an aggregometer (made by Briston Co.).
The results obtained are shown in Table 2 in terms of IC50 (50% inhibition concentration in M).

aldose reductase = target: T1, aldose reductase (Rattus norvegicus, UniProt P07943); experiment: Aldose reductase inhibiting activity; assay type: biochemical, rat (Wistar strain male, eye lens); details: rat lens crude enzyme; DL-glyceraldehyde 10 mM, NADPH 0.104 mM, pH 6.2; Table 3; read-out: IC50 (50% inhibition concentration), aldose reductase
T1 construct: the supernatant was used as the crude enzyme solution; from tissue; host or cells: eye lens of male Wistar rats, 10,000 g supernatant of the homogenate
Description: Thus, Wistar strain male rats were sacrificed by decapitation, the lenses were excised and homogenized with a 0.1M phosphate buffer [pH 6.8; containing 1 mM of mercaptoethanol and 1 mM of nicotinamide-adenine dinucleotide phosphate (NADP)]. The homogenate was then centrifuged at 10,000 g for 15 minutes and the supernatant was used as the crude enzyme solution.
To this buffer solution, there was added 15 μl of each of solutions of each test compound in varied concentrations, followed by addition of 25 μl of the crude enzyme solution prepared in advance, to thereby initiate the reaction.

[2] = Acute toxicity in mice (oral); details: mouse, in vivo, oral gavage in 10% gum arabic, 2 weeks
[3] = 2 min, washed rabbit platelets 6×10^8 cells/ml, thrombin 0.2 unit/ml, 37° C., 2 minutes incubation, read-out: IC50 (50% inhibition concentration), platelet aggregation
[4] = read-out: concentration that inhibited the thrombin-induced aggregation of washed rabbit platelets by 50%

Row | SMILES | IC50 [1, 3] | IC50 (aldose reductase) | platelet aggregation inhibiting activity (in words) [1] | IC50 [1, 4] | platelet aggregation inhibiting activity relative to Dipyridamole (Persantine) [1] | LD50 at 336 h [2]
1 | CC=CC=C1SC(=S)N(CC(=O)O)C1=O [Compound No. 7, 3-Carboxymethyl-5-(2-butenylidene)rhodanine] | 20 µM | 0.07 µM | noticeably strong platelet aggregation inhibiting activity | 20 to 40 µM | about 10 times | 3500 to 5000 mg/kg
2 | CCCC=CC=C1SC(=S)N(CC(=O)O)C1=O [Compound No. 10, 3-Carboxymethyl-5-(2-hexenylidene)rhodanine] | 30 µM | 0.04 µM | noticeably strong platelet aggregation inhibiting activity | 20 to 40 µM | about 10 times | 3500 to 5000 mg/kg
3 | CC=CC=CC=C1SC(=S)N(CC(=O)O)C1=O [Compound No. 11, 3-Carboxymethyl-5-(2,4-hexadienylidene)rhodanine] | 20 µM | 0.046 µM | noticeably strong platelet aggregation inhibiting activity | 20 to 40 µM | about 10 times | 3500 to 5000 mg/kg
4 | CC(C)=CCCC(C)=CCCC(C)=CCCC(C)=CC=C1SC(=S)N(CC(=O)O)C1=O [Compound No. 13, 3-Carboxymethyl-5-(3,7,11,15-tetramethyl-2,6,10,14-hexadecatetraenylidene)rhodanine] | 40 µM | 0.65 µM | noticeably strong platelet aggregation inhibiting activity | 20 to 40 µM | about 10 times | 3500 to 5000 mg/kg
5 | CCCCCCCCCCC=C1SC(=S)N(CC(=O)O)C1=O [compound 4, 3-Carboxymethyl-5-undecylidenerhodanine] | > 300 µM | 0.3 µM | – | – | – | –
6 | CCCCCC=C1SC(=S)N(CC(=O)O)C1=O [compound 5, 3-Carboxymethyl-5-n-hexylidenerhodanine] | > 300 µM | 0.13 µM | – | – | – | –
7 | CC(C)=CCCC(C)=CC=C1SC(=S)N(CC(=O)O)C1=O [compound 12, 3-Carboxymethyl-5-(3,7-dimethyl-2,6-octadienylidene)rhodanine] | > 300 µM | – | – | – | – | 3500 to 5000 mg/kg

Now from value to molecule, other results behind:

Row | IC50 [1, 3] | IC50 (aldose reductase) | SMILES | platelet aggregation inhibiting activity (in words) [1] | IC50 [1, 4] | platelet aggregation inhibiting activity relative to Dipyridamole (Persantine) [1] | LD50 at 336 h [2]
8 | > 300 µM | 0.2 µM | CCC=C1SC(=S)N(CC(=O)O)C1=O [Compound No. 1, 3-Carboxymethyl-5-propylidenerhodanine] | – | – | – | –
9 | 30 µM | 0.75 µM | C=CC=C1SC(=S)N(CC(=O)O)C1=O [Compound No. 6, 3-Carboxymethyl-5-allylidenerhodanine] | noticeably strong platelet aggregation inhibiting activity | 20 to 40 µM | about 10 times | –
10 | 20 µM | 0.13 µM | O=C(O)CN1C(=O)C(=CC=CCCl)SC1=S [Compound No. 8, 3-Carboxymethyl-5-(4-chloro-2-butenylidene)rhodanine] | noticeably strong platelet aggregation inhibiting activity | 20 to 40 µM | about 10 times | –
11 | > 300 µM | 0.14 µM | O=C(O)CN1C(=O)C(=CCCCCl)SC1=S [compound 2, 3-Carboxymethyl-5-(4-chlorobutylidene)rhodanine] | – | – | – | –
12 | > 300 µM | 0.1 µM | CC(C)(C)C=C1SC(=S)N(CC(=O)O)C1=O [compound 3, 3-Carboxymethyl-5-(2,2-dimethylpropylidene)rhodanine] | – | – | – | –
13 | > 400 µM | 0.1 µM | CC(C)=CC=C1SC(=S)N(CC(=O)O)C1=O [compound 9, 3-Carboxymethyl-5-(3-methyl-2-butenylidene)rhodanine] | – | – | – | –
